# Assays:
# Experiment in all cases: relative viability (nuclei count vs DMSO), 5 days (fraction); higher = more cells survive
# NCI-H1651 = test system: NCI-H1651
# Method in brief: (§1)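 Dosing by pin tool came one day after lung cancer cell lines were seeded in 1536-well plates, using either one drug or a fixed anchor-drug dose plus five library-drug doses (not always all listed) in √10 steps. After 5 days, nuclei were counted on 4× images. Relative viability is treated-well nuclei count divided by vehicle-well nuclei count, and values are medians of duplicate plates.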
# SK-LU-1 = test system: SK-LU-1
# Method in brief: as §1
# COR-L 105 = test system: COR-L 105
# Method in brief: as §1
# NCI-H2085 = test system: NCI-H2085
# Method in brief: as §1
# PC-3 [JPC-3] = test system: PC-3 [JPC-3]
# Method in brief: as §1
# NCI-H1944 = test system: NCI-H1944
# Method in brief: as §1
# NCI-H1793 = test system: NCI-H1793
# Method in brief: as §1
# EMC-BAC-2 = test system: EMC-BAC-2
# Method in brief: as §1
# NCI-H1437 = test system: NCI-H1437
# Method in brief: as §1
# LK-2 = test system: LK-2
# Method in brief: as §1
# NCI-H2228 = test system: NCI-H2228
# Method in brief: as §1
# H3255 = test system: H3255
# Method in brief: as §1
# NCI-H2087 = test system: NCI-H2087
# Method in brief: as §1
# NCI-H1755 = test system: NCI-H1755
# Method in brief: as §1
# CAL-12T = test system: CAL-12T
# Method in brief: as §1
# NCI-H1395 = test system: NCI-H1395
# Method in brief: as §1
# NCI-H661 = test system: NCI-H661
# Method in brief: as §1
# LXF-289 = test system: LXF-289
# Method in brief: as §1
# NCI-H2347 = test system: NCI-H2347
# Method in brief: as §1
# EKVX = test system: EKVX
# Method in brief: as §1
# NCI-H1915 = test system: NCI-H1915
# Method in brief: as §1
# LC-2-ad = test system: LC-2-ad
# Method in brief: as §1
# SK-MES-1 = test system: SK-MES-1
# Method in brief: as §1
smiles,measurement,setting,value
O=C(O)CCCCC(CCSCc1ccccc1)SCc1ccccc1 (stereo not drawn) [CPI-613] + Cc1nc(Nc2ncc(C(=O)Nc3c(C)cccc3Cl)s2)cc(N2CCN(CCO)CC2)n1 [Dasatinib] (partner 0.075 µM),relative viability,NCI-H1651; first compound 5 µM,0.348
same,relative viability,NCI-H1651; first compound 15.81 µM,0.387
same,relative viability,NCI-H1651; first compound 50 µM,0.416
same,relative viability,NCI-H1651; first compound 158.11 µM,0.282
same,relative viability,NCI-H1651; first compound 500 µM,0.123
same,relative viability,SK-LU-1; first compound 5 µM,0.176
same,relative viability,SK-LU-1; first compound 15.81 µM,0.18
same,relative viability,SK-LU-1; first compound 50 µM,0.187
same,relative viability,SK-LU-1; first compound 158.11 µM,0.151
same,relative viability,SK-LU-1; first compound 500 µM,0.0997
same,relative viability,COR-L 105; first compound 5 µM,0.386
same,relative viability,COR-L 105; first compound 15.81 µM,0.285
same,relative viability,COR-L 105; first compound 50 µM,0.307
same,relative viability,COR-L 105; first compound 158.11 µM,0.278
same,relative viability,COR-L 105; first compound 500 µM,0.131
same,relative viability,NCI-H2085; first compound 5 µM,0.267
same,relative viability,NCI-H2085; first compound 15.81 µM,0.266
same,relative viability,NCI-H2085; first compound 50 µM,0.255
same,relative viability,NCI-H2085; first compound 158.11 µM,0.242
same,relative viability,NCI-H2085; first compound 500 µM,0.257
same,relative viability,PC-3 [JPC-3]; first compound 5 µM,0.903
same,relative viability,PC-3 [JPC-3]; first compound 15.81 µM,0.948
same,relative viability,PC-3 [JPC-3]; first compound 50 µM,0.909
same,relative viability,PC-3 [JPC-3]; first compound 158.11 µM,0.879
same,relative viability,PC-3 [JPC-3]; first compound 500 µM,0.348
same,relative viability,NCI-H1944; first compound 5 µM,0.212
same,relative viability,NCI-H1944; first compound 15.81 µM,0.219
same,relative viability,NCI-H1944; first compound 50 µM,0.188
same,relative viability,NCI-H1944; first compound 158.11 µM,0.19
same,relative viability,NCI-H1944; first compound 500 µM,0.0792
same,relative viability,NCI-H1793; first compound 5 µM,0.327
same,relative viability,NCI-H1793; first compound 15.81 µM,0.317
same,relative viability,NCI-H1793; first compound 50 µM,0.421
same,relative viability,NCI-H1793; first compound 158.11 µM,0.165
same,relative viability,NCI-H1793; first compound 500 µM,0.018
same,relative viability,EMC-BAC-2; first compound 5 µM,0.303
same,relative viability,EMC-BAC-2; first compound 15.81 µM,0.187
same,relative viability,EMC-BAC-2; first compound 50 µM,0.309
same,relative viability,EMC-BAC-2; first compound 158.11 µM,0.206
same,relative viability,EMC-BAC-2; first compound 500 µM,0.0369
same,relative viability,NCI-H1437; first compound 5 µM,0.388
same,relative viability,NCI-H1437; first compound 15.81 µM,0.314
same,relative viability,NCI-H1437; first compound 50 µM,0.381
same,relative viability,NCI-H1437; first compound 500 µM,0.304
same,relative viability,LK-2; first compound 5 µM,0.241
same,relative viability,LK-2; first compound 15.81 µM,0.279
same,relative viability,LK-2; first compound 50 µM,0.252
same,relative viability,LK-2; first compound 158.11 µM,0.254
same,relative viability,LK-2; first compound 500 µM,0.195
same,relative viability,NCI-H2228; first compound 5 µM,0.559
same,relative viability,NCI-H2228; first compound 15.81 µM,0.469
same,relative viability,NCI-H2228; first compound 50 µM,0.437
same,relative viability,NCI-H2228; first compound 158.11 µM,0.231
same,relative viability,NCI-H2228; first compound 500 µM,0.0527
same,relative viability,H3255; first compound 5 µM,0.408
same,relative viability,H3255; first compound 15.81 µM,0.307
same,relative viability,H3255; first compound 50 µM,0.346
same,relative viability,H3255; first compound 500 µM,0.335
same,relative viability,NCI-H2087; first compound 5 µM,0.809
same,relative viability,NCI-H2087; first compound 15.81 µM,0.886
same,relative viability,NCI-H2087; first compound 50 µM,0.792
same,relative viability,NCI-H2087; first compound 158.11 µM,0.196
same,relative viability,NCI-H2087; first compound 500 µM,0.023
same,relative viability,NCI-H1755; first compound 5 µM,0.406
same,relative viability,NCI-H1755; first compound 15.81 µM,0.41
same,relative viability,NCI-H1755; first compound 50 µM,0.446
same,relative viability,NCI-H1755; first compound 158.11 µM,0.464
same,relative viability,NCI-H1755; first compound 500 µM,0.225
same,relative viability,CAL-12T; first compound 5 µM,0.398
same,relative viability,CAL-12T; first compound 15.81 µM,0.454
same,relative viability,CAL-12T; first compound 50 µM,0.263
same,relative viability,CAL-12T; first compound 158.11 µM,0.0331
same,relative viability,CAL-12T; first compound 500 µM,0.0093
same,relative viability,NCI-H1395; first compound 5 µM,0.397
same,relative viability,NCI-H1395; first compound 15.81 µM,0.352
same,relative viability,NCI-H1395; first compound 50 µM,0.414
same,relative viability,NCI-H1395; first compound 158.11 µM,0.409
same,relative viability,NCI-H1395; first compound 500 µM,0.358
same,relative viability,NCI-H661; first compound 5 µM,0.863
same,relative viability,NCI-H661; first compound 15.81 µM,0.83
same,relative viability,NCI-H661; first compound 50 µM,0.798
same,relative viability,NCI-H661; first compound 158.11 µM,0.312
same,relative viability,NCI-H661; first compound 500 µM,0.155
same,relative viability,LXF-289; first compound 5 µM,0.208
same,relative viability,LXF-289; first compound 15.81 µM,0.206
same,relative viability,LXF-289; first compound 50 µM,0.235
same,relative viability,LXF-289; first compound 158.11 µM,0.203
same,relative viability,LXF-289; first compound 500 µM,0.0464
same,relative viability,NCI-H2347; first compound 5 µM,0.295
same,relative viability,NCI-H2347; first compound 15.81 µM,0.308
same,relative viability,NCI-H2347; first compound 50 µM,0.227
same,relative viability,NCI-H2347; first compound 158.11 µM,0.315
same,relative viability,NCI-H2347; first compound 500 µM,0.327
same,relative viability,EKVX; first compound 5 µM,0.561
same,relative viability,EKVX; first compound 15.81 µM,0.482
same,relative viability,EKVX; first compound 50 µM,0.565
same,relative viability,EKVX; first compound 158.11 µM,0.466
same,relative viability,EKVX; first compound 500 µM,0.517
same,relative viability,NCI-H1915; first compound 5 µM,0.294
same,relative viability,NCI-H1915; first compound 15.81 µM,0.244
same,relative viability,NCI-H1915; first compound 50 µM,0.245
same,relative viability,NCI-H1915; first compound 158.11 µM,0.228
same,relative viability,NCI-H1915; first compound 500 µM,0.169
same,relative viability,LC-2-ad; first compound 5 µM,0.488
same,relative viability,LC-2-ad; first compound 15.81 µM,0.51
same,relative viability,LC-2-ad; first compound 50 µM,0.573
same,relative viability,LC-2-ad; first compound 158.11 µM,0.259
same,relative viability,LC-2-ad; first compound 500 µM,0.0544
same,relative viability,SK-MES-1; first compound 5 µM,0.393
same,relative viability,SK-MES-1; first compound 15.81 µM,0.428
same,relative viability,SK-MES-1; first compound 50 µM,0.432
same,relative viability,SK-MES-1; first compound 158.11 µM,0.125
same,relative viability,SK-MES-1; first compound 500 µM,0.0807

# From the supplement of paper PMC10307832
